US8133847B2, “Pyrido[2,3-B]pyrazine derivatives useful as herbicidal compounds” (Syngenta Limited, priority 2006, dated 2012)

Legend:
Experiment in all cases: Example B1 herbicidal action, post-emergence, 96-cell seed trays, climatic chamber
Format in all cases: in vivo
[1] = test system: Amaranthus retroflexus (AMARE); settings: Application post-emergence, 1000 mg/l spray equivalent to 1000 g/ha, evaluated after 9 days
Description: (§1) Seeds of a variety of test species were sown in sterilised standard soil in seed trays each having 96 cells. After cultivation for 8 to 9 days cultivation (post-emergence) under controlled conditions in a climatic chamber (cultivation at 23/17° C., day/night; 13 hours light; 50-60% humidity), the plants were treated with an aqueous spray solution of 1000 mg/l of the active ingredient dissolved in 10% DMSO (dimethyl sulfoxide, CAS RN 67-68-5) as a solvent, equivalent to 1000 g/ha. The plants were grown in the climatic chamber after application at (24/19° C., day/night; 13 hours light; 50-60% humidity) and watered twice daily. After 9 days until the test was evaluated (100=total damage to plant, 0=no damage to plant)

[2] = test system: Stellaria media (STEME); settings: Application post-emergence, 1000 mg/l spray equivalent to 1000 g/ha, evaluated after 9 days (100=total damage to plant, 0=no damage to plant)
Description: as §1

[3] = test system: Solanum nigrum (SOLNI); settings: Application post-emergence, 1000 mg/l spray equivalent to 1000 g/ha, evaluated after 9 days (100=total damage to plant, 0=no damage to plant)
Description: as §1

[4] = test system: Nasturtium officinale (NAAOF); design: scale not given here; settings: Application post-emergence, 1000 mg/l spray equivalent to 1000 g/ha, evaluated after 9 days (100=total damage to plant, 0=no damage to plant)
Description: as §1

Row | Compound | damage to plant, Amaranthus retroflexus (AMARE) [1] | damage to plant, Stellaria media (STEME) [2] | damage to plant, Solanum nigrum (SOLNI) [3] | damage to plant, Nasturtium officinale (NAAOF) [4]
1 | CC(=O)Oc1c(-c2ccccc2OC(F)(F)F)c(=O)n(Cc2ccccc2)c2nccnc12 [Compound C24] | 0 | 3 | 3 | 4
2 | O=c1[nH]c2nccnc2c(O)c1-c1ccccc1F [Compound A15] | 0 | 0 | 0 | 2
3 | CC(C)C(=O)c1c(-c2c(Cl)cccc2Cl)c(=O)n(C)c2nccnc12 [Compound C56] | 8 | 7 | 0 | 7
4 | C=CCn1c(=O)c(-c2ccccc2OC(F)(F)F)c(OC(=O)C(C)(C)C)c2nccnc21 [Compound C25] | 0 | 2 | 0 | 0
5 | CCn1c(=O)c(-c2cc(C(F)(F)F)ccc2Cl)c(OC(=O)C(C)C)c2nccnc21 [Compound C119] | 7 | 8 | 6 | 7
6 | O=c1[nH]c2nccnc2c(O)c1-c1ccccc1Cl [Compound A2] | 6 | 2 | 0 | 2
7 | CCn1c(=O)c(-c2c(F)ccc(F)c2F)c(OC(=O)C(C)C)c2nccnc21 [Compound C57] | 5 | 7 | 2 | 6
8 | O=c1[nH]c2nccnc2c(O)c1-c1ccccc1OC(F)(F)F [Compound A13] | 5 | 3 | 0 | 0
9 | CCn1c(=O)c(-c2c(Cl)cccc2C(F)(F)F)c(OC(=O)C(C)C)c2nccnc21 [Compound C80] | 7 | 8 | 2 | 6
10 | O=c1[nH]c2ncc(Cl)nc2c(O)c1-c1c(Cl)cccc1Cl [Compound A27] | 0 | 2 | 0 | 0
11 | Cc1ccc(Cl)c(-c2c(OC(=O)C(C)C)c3nccnc3n(C)c2=O)c1F [Compound C114] | 2 | 6 | 2 | 5
12 | C=CCn1c(=O)c(-c2cccc(C(F)(F)F)c2Cl)c(OC(=O)C(C)C)c2nccnc21 [Compound C125] | 2 | 7 | 8 | 7
13 | CC(C)C(=O)Oc1c(-c2c(F)ccc(F)c2F)c(=O)n(C)c2nccnc12 [Compound C58] | 6 | 8 | 0 | 7
14 | O=c1[nH]c2nccnc2c(O)c1-c1ccc(F)cc1C(F)(F)F [Compound A17] | 8 | 5 | 5 | 7
15 | COc1ccc(-c2c(O)c3nccnc3[nH]c2=O)c(OC)c1 [Compound A20] | – | 0 | – | 2
16 | CCn1c(=O)c(-c2ccccc2OC(F)(F)F)c(O)c2nccnc21 [Compound D5] | 3 | 6 | – | 7
